Experiments:
S. aureus ATCC 29213 [1] = assay: Checkerboard assay, aminoglycoside and tomatidine; format: cell-based, Staphylococcus aureus; settings: for Aminoglycoside MIC: checkerboard
S. aureus ATCC 43300 = assay: MIC, microdilution in CAMHB 24 h; format: cell-based, Staphylococcus aureus; settings: ATCC 43300
S. aureus Newman = assay: MIC, microdilution in CAMHB 24 h; format: cell-based, Staphylococcus aureus; settings: Newman
S. aureus CF6B-L = assay: MIC, microdilution in CAMHB 24 h; format: cell-based, Staphylococcus aureus; settings: CF6B-L
S. aureus ATCC 29213 [2] = assay: Time-kill experiments, aminoglycoside alone or with tomatidine (FIGS. 8-10)
S. aureus Sa220c = assay: MIC, microdilution in CAMHB 24 h; format: cell-based, Staphylococcus aureus; settings: Sa220c
S. aureus CF35A-L = assay: MIC, microdilution in CAMHB 24 h; format: cell-based, Staphylococcus aureus; settings: CF35A-L
S. aureus N315 = assay: microbe, parasite or virus in culture; format: cell-based, Staphylococcus aureus
S. aureus MRSA COL = assay: MIC, microdilution in CAMHB 24 h; format: cell-based, Staphylococcus aureus; settings: MRSA COL
S. aureus ATCC 29213 [3] = assay: MIC, microdilution in CAMHB 24 h, with or without tomatidine/compound; format: cell-based, Staphylococcus aureus; settings: for MIC −TO: absence of tomatidine
S. aureus CF4B-L = assay: MIC, microdilution in CAMHB 24 h; format: cell-based, Staphylococcus aureus; settings: CF4B-L
S. aureus CF07-L = assay: MIC, microdilution in CAMHB 24 h; format: cell-based, Staphylococcus aureus; settings: CF07-L
S. aureus CF1A-L = assay: MIC, microdilution in CAMHB 24 h; format: cell-based, Staphylococcus aureus; settings: CF1A-L
S. aureus MA078038 = assay: MIC, microdilution in CAMHB 24 h; format: cell-based, Staphylococcus aureus
S. aureus SHY97-3906 = assay: MIC, microdilution in CAMHB 24 h; format: cell-based, Staphylococcus aureus
S. aureus Mu50 = assay: MIC, microdilution in CAMHB 24 h; format: cell-based, Staphylococcus aureus
S. aureus CF7A-L = assay: MIC, microdilution in CAMHB 24 h; format: cell-based, Staphylococcus aureus; settings: CF7A-L
S. aureus CF9A-L = assay: MIC, microdilution in CAMHB 24 h; format: cell-based, Staphylococcus aureus; settings: CF9A-L
[4] = ATCC 29123, 8 μg/ml of tomatidine
[5] = SHY-3906, 8 μg/ml of tomatidine
[6] = ant(4′)-Ia, 8 μg/ml of tomatidine
[7] = ant(4′)-Ia, absence of tomatidine

Question: With gentamicin as the substance, how does the FIC index (S. aureus ATCC 29213 [1]; aminoglycoside with tomatidine, tomatidine MIC considered 32 μg/ml, values overestimated) read?
Answer: ≦0.116

Question: And the “Aminoglycoside MIC” value (S. aureus ATCC 29213 [1]; tomatidine 0 μg/ml)?
Answer: 0.5 to 1 µg/mL

Question: And the “Aminoglycoside MIC” value (S. aureus ATCC 29213 [1]; tomatidine 0.06 μg/ml)?
Answer: 0.25 µg/mL

Question: What about the “Aminoglycoside MIC” value (S. aureus ATCC 29213 [1]; tomatidine 0.12 μg/ml) of the same substance?
Answer: 0.06 to 0.25 µg/mL

Question: And the “Aminoglycoside MIC” value (S. aureus ATCC 29213 [1]; tomatidine 0.25 μg/ml)?
Answer: 0.06 µg/mL

Question: And the “Aminoglycoside MIC” value (S. aureus ATCC 29213 [1]; tomatidine 0.5 μg/ml)?
Answer: 0.06 µg/mL

Question: And the “Aminoglycoside MIC” value (S. aureus ATCC 29213 [1]; tomatidine 1 μg/ml)?
Answer: 0.03 to 0.06 µg/mL

Question: And the “Aminoglycoside MIC” value (S. aureus ATCC 29213 [1]; tomatidine 2 μg/ml)?
Answer: 0.06 to 0.12 µg/mL

Question: And the “Aminoglycoside MIC” value (S. aureus ATCC 29213 [1]; tomatidine 4 μg/ml)?
Answer: 0.03 to 0.12 µg/mL

Question: And the “Aminoglycoside MIC” value (S. aureus ATCC 29213 [1]; tomatidine 8 μg/ml)?
Answer: 0.03 to 0.06 µg/mL

Question: And the “Fold (−TO/+TO)” value (S. aureus ATCC 43300; 8 μg/ml of tomatidine)?
Answer: 4 fold

Question: And the “MIC +TO” value (S. aureus ATCC 43300; 8 μg/ml of tomatidine)?
Answer: 16 to 32 µg/mL

Question: And the MIC (S. aureus ATCC 43300; Human (HA), MRSA)?
Answer: 64-128 (R) μg/ml

Question: What about the “MIC −TO” value (S. aureus ATCC 43300; absence of tomatidine) of the same substance?
Answer: 64 to 128 µg/mL

Question: What about the “Fold (−TO/+TO)” value (S. aureus Newman; 8 μg/ml of tomatidine) of the same substance?
Answer: 8-16 fold

Question: And the “MIC +TO” value (S. aureus Newman; 8 μg/ml of tomatidine)?
Answer: 0.06 µg/mL

Question: And the MIC (S. aureus Newman; Human (Osteo))?
Answer: 0.5 to 1 µg/mL

Question: And the “MIC −TO” value (S. aureus Newman; absence of tomatidine)?
Answer: 0.5 to 1 µg/mL

Question: And the “MIC +TO” value (S. aureus CF6B-L; aac(6′)-aph(2″), 8 μg/ml of tomatidine)?
Answer: 16 to 32 µg/mL

Question: And the “MIC −TO” value (S. aureus CF6B-L; aac(6′)-aph(2″), absence of tomatidine)?
Answer: 128 to 256 µg/mL

Question: What about the “Fold (−TO/+TO)” value (S. aureus CF6B-L; 8 μg/ml of tomatidine) of the same substance?
Answer: 4-8 fold

Question: And the MIC (S. aureus CF6B-L; Human (CF lungs))?
Answer: 128-256 (R) μg/ml

Question: And the time-kill activity alone (S. aureus ATCC 29213 [2]; alone at ≧1×MIC (1 μg/ml), regrowth observed within 24 h, FIG. 9)?
Answer: bactericidal

Question: What about the “time-kill activity of combination” value (S. aureus ATCC 29213 [2]; gentamicin 0.06 μg/ml combined with tomatidine 8, FIG. 8) of the same substance?
Answer: strong bactericidal activity

Question: What about the “Fold (−TO/+TO)” value (S. aureus Sa220c; 8 μg/ml of tomatidine) of the same substance?
Answer: 4-8 fold

Question: What about the “MIC +TO” value (S. aureus Sa220c; 8 μg/ml of tomatidine) of the same substance?
Answer: 0.06 to 0.12 µg/mL

Question: And the MIC (S. aureus Sa220c; Human (SSTI), MRSA)?
Answer: 0.5 µg/mL

Question: And the “MIC −TO” value (S. aureus Sa220c; absence of tomatidine)?
Answer: 0.5 µg/mL

Question: What about the “Fold (−TO/+TO)” value (S. aureus CF35A-L; 8 μg/ml of tomatidine) of the same substance?
Answer: 8 fold

Question: What about the “MIC +TO” value (S. aureus CF35A-L; 8 μg/ml of tomatidine) of the same substance?
Answer: 0.06 to 0.12 µg/mL

Question: And the MIC (S. aureus CF35A-L; Human (CF lungs), MRSA)?
Answer: 0.5 to 1 µg/mL

Question: What about the “MIC −TO” value (S. aureus CF35A-L; absence of tomatidine) of the same substance?
Answer: 0.5 to 1 µg/mL

Question: And the “MIC +TO” value (S. aureus N315; N315, ant(4′)-Ia, 8 μg/ml of tomatidine)?
Answer: 0.12 µg/mL

Question: And the “MIC −TO” value (S. aureus N315; N315, ant(4′)-Ia, absence of tomatidine)?
Answer: 1 µg/mL

Question: What about the “Fold (−TO/+TO)” value (S. aureus N315; N315, 8 μg/ml of tomatidine) of the same substance?
Answer: 8 fold

Question: What about the MIC (S. aureus N315; N315, Human (HA), MRSA) of the same substance?
Answer: 1 µg/mL

Question: And the “Fold (−TO/+TO)” value (S. aureus MRSA COL; 8 μg/ml of tomatidine)?
Answer: 8-16 fold

Question: And the “MIC +TO” value (S. aureus MRSA COL; 8 μg/ml of tomatidine)?
Answer: 0.06 µg/mL

Question: And the MIC (S. aureus MRSA COL; Human (SSTI))?
Answer: 0.5 to 1 µg/mL

Question: And the “MIC −TO” value (S. aureus MRSA COL; absence of tomatidine)?
Answer: 0.5 to 1 µg/mL

Question: And the “Fold (−TO/+TO)” value (S. aureus ATCC 29213 [3]; [4])?
Answer: 8-32 fold

Question: And the “MIC +TO” value (S. aureus ATCC 29213 [3]; [4])?
Answer: 0.03 to 0.06 µg/mL

Question: What about the “MIC −TO” value (S. aureus ATCC 29213 [3]; ATCC 29123) of the same substance?
Answer: 0.5 to 1 µg/mL

Question: What about the MIC (S. aureus ATCC 29213 [3]; ATCC 29213, Human (SSTI)) of the same substance?
Answer: 0.5 to 1 µg/mL

Question: What about the “MIC −TO” value (S. aureus ATCC 29213 [3]; ATCC 29213) of the same substance?
Answer: 0.5-1^ μg/ml

Question: And the “MIC +TO” value (S. aureus ATCC 29213 [3]; ATCC 29213, presence of tomatidine at 8 μg/ml)?
Answer: 0.03 to 0.06 µg/mL

Question: What about the “Fold (−TO/+TO)” value (S. aureus ATCC 29213 [3]; ATCC 29213, tomatidine at 8 μg/ml) of the same substance?
Answer: 8-32 fold

Question: What about the “Fold (−TO/+TO)” value (S. aureus CF4B-L; 8 μg/ml of tomatidine) of the same substance?
Answer: 4-8 fold

Question: What about the “MIC +TO” value (S. aureus CF4B-L; 8 μg/ml of tomatidine) of the same substance?
Answer: 0.06 to 0.12 µg/mL

Question: And the MIC (S. aureus CF4B-L; Human (CF lungs))?
Answer: 0.5 µg/mL

Question: And the “MIC −TO” value (S. aureus CF4B-L; absence of tomatidine)?
Answer: 0.5 µg/mL

Question: And the “Fold (−TO/+TO)” value (S. aureus CF07-L; 8 μg/ml of tomatidine)?
Answer: 4-8 fold

Question: And the “MIC +TO” value (S. aureus CF07-L; 8 μg/ml of tomatidine)?
Answer: 0.06 to 0.25 µg/mL

Question: What about the MIC (S. aureus CF07-L; Human (CF lungs)) of the same substance?
Answer: 0.5 to 1 µg/mL

Question: And the “MIC −TO” value (S. aureus CF07-L; absence of tomatidine)?
Answer: 0.5 to 1 µg/mL

Question: And the “Fold (−TO/+TO)” value (S. aureus CF1A-L; 8 μg/ml of tomatidine)?
Answer: 4-8 fold

Question: And the “MIC +TO” value (S. aureus CF1A-L; 8 μg/ml of tomatidine)?
Answer: 0.12 µg/mL

Question: What about the MIC (S. aureus CF1A-L; Human (CF lungs)) of the same substance?
Answer: 0.5 to 1 µg/mL

Question: What about the “MIC −TO” value (S. aureus CF1A-L; absence of tomatidine) of the same substance?
Answer: 0.5 to 1 µg/mL

Question: And the “MIC +TO” value (S. aureus MA078038; MA078038, aph(3′)-IIIa, 8 μg/ml of tomatidine)?
Answer: 0.06 µg/mL

Question: What about the “MIC −TO” value (S. aureus MA078038; MA078038, aph(3′)-IIIa, absence of tomatidine) of the same substance?
Answer: 0.25 to 0.5 µg/mL

Question: And the “Fold (−TO/+TO)” value (S. aureus MA078038; MA078038, 8 μg/ml of tomatidine)?
Answer: 4-8 fold

Question: What about the MIC (S. aureus MA078038; MA078038, Human (CA), MRSA) of the same substance?
Answer: 0.25 to 0.5 µg/mL

Question: What about the MIC (S. aureus SHY97-3906; SHY97-3906, Cow (mastitis)) of the same substance?
Answer: 0.25 µg/mL

Question: And the “Fold (−TO/+TO)” value (S. aureus SHY97-3906; [5])?
Answer: 4-8 fold

Question: And the “MIC +TO” value (S. aureus SHY97-3906; [5])?
Answer: 0.03 to 0.06 µg/mL

Question: What about the “MIC −TO” value (S. aureus SHY97-3906; SHY-3906, absence of tomatidine) of the same substance?
Answer: 0.25 µg/mL

Question: What about the “MIC +TO” value (S. aureus Mu50; Mu50, aac(6′)-aph(2″), ant(4′)-Ia, 8 μg/ml of tomatidine) of the same substance?
Answer: 16 µg/mL

Question: What about the “MIC −TO” value (S. aureus Mu50; Mu50, aac(6′)-aph(2″), ant(4′)-Ia, absence of tomatidine) of the same substance?
Answer: 128 µg/mL

Question: What about the “Fold (−TO/+TO)” value (S. aureus Mu50; Mu50, 8 μg/ml of tomatidine) of the same substance?
Answer: 8 fold

Question: What about the MIC (S. aureus Mu50; Mu50, Human (SSTI), MRSA, VISA) of the same substance?
Answer: 128 (R) μg/ml

Question: What about the “MIC +TO” value (S. aureus CF7A-L; [6]) of the same substance?
Answer: 0.12 to 0.25 µg/mL

Question: And the “MIC −TO” value (S. aureus CF7A-L; [7])?
Answer: 0.5 to 1 µg/mL

Question: And the “Fold (−TO/+TO)” value (S. aureus CF7A-L; 8 μg/ml of tomatidine)?
Answer: 2-8 fold

Question: What about the MIC (S. aureus CF7A-L; Human (CF lungs), MRSA) of the same substance?
Answer: 0.5 to 1 µg/mL

Question: What about the “MIC +TO” value (S. aureus CF9A-L; [6]) of the same substance?
Answer: 0.06 to 0.12 µg/mL

Question: And the “MIC −TO” value (S. aureus CF9A-L; [7])?
Answer: 0.5 to 1 µg/mL

Question: And the “Fold (−TO/+TO)” value (S. aureus CF9A-L; 8 μg/ml of tomatidine)?
Answer: 4-8 fold

Question: And the MIC (S. aureus CF9A-L; Human (CF lungs), MRSA)?
Answer: 0.5 to 1 µg/mL
